Test results taken from patent US8592368B2, “JAK/STAT inhibitors and MAPK/ERK inhibitors for RSV infection” (University of South Florida, priority 2003, dated 2013).

Legend:
HIV-1 = details: Yang and Gabuzda 1999; cited from earlier work
STAT-1α = STAT-1α phosphorylation in RSV-infected A549 cells (immunoblot); type: cell-based, human; details: for RSV-induced STAT-1α phosphorylation: A549 cells pre-incubated with AG490 (50 μM) or PD98059 for 4 hours, then RSV, densitometry of Western blot
Experimental: (§1) FIGS. 4A-4F that blocking STAT-1α attenuates RSV gene transcription and infection. A549 cells were treated with 50 µM AG490 for 4 hours before being exposed to supRSV for 30 minutes. Lysates were separated by SDS-PAGE and immunoblotted using antibodies to phospho-STAT-1α and STAT-1α. The total number of syncytia-forming plaques (PFU/ml) was counted 72 hours post-infection. Each value represents means SEM (N=3, *p<0.001). Cell proliferation was determined by viable cell counts. A549 cells were cotransfected with the pRL-TK plasmid and either the WT (pRc/CMV STAT-1α) (lanes 1 and 2) or DN mutant (pRc/CMV STAT-1α) (Y701F) (lanes 3 and 4) and then exposed to supRSV for 30 minutes. Lysates were separated by SDS-PAGE and immunoblotted for phospho-STAT-1α or STAT-1α. A549 cells were transfected with WT or DN-STAT-1α constructs and 24 hours later exposed to RSV for 30 minutes. RSV replication was measured by RT-PCR analysis of N protein gene expression. The percentage of infected cells was determined using immunofluorescence in cells transfected with WT or DN-STAT-1α. The values are means SEM (*p<0.001).
FIGS. 8A-8D show the effects of inhibitors of phosphorylation of STAT-1α and ERK-1/2. In FIG. 8A, AG490- or PD98059-treated A549 cells were infected with RSV for 15 minutes. Total proteins were Western-blotted using specific anti-phospho antibodies to STAT-1α, ERK-1/2 or IκBα. Lane 1: mock-infected, lanes 2-4: RSV infected for 30 minutes, lane 3: cells treated with 50 μM of AG490 prior to RSV infection, lane 4: cells treated with 25 μM of PD98059 for 4 hours prior RSV infection. In FIG. 8B, the bands were quantified by densitometry and the relative intensity of phosphoSTAT-1α, phospho-ERK and phospho-IκBα with respect to uninfected control (lane 1) was determined. The experiment was repeated twice and the result of a representative experiment is shown. […] A549 cells were co-transfected with RL-TK plasmid and either the WT (pRc/CMV-STAT-1α) (lanes 3 and 4) or DN mutant (pRc/CMV-STAT-1α) (Y701F) (lanes 5 and 6) and were infected with RSV for 30 minutes after 24 hours of transfection. […] In FIG. 8D, the bands were quantified by densitometry and the relative intensity of phospho-ERK and ERK was determined in each band. […]
Immunoblotting was carried out as previously described (Behera, A. K. et al. Biochem. Biophys. Res. Commun., 1998, 251(3): 704-709). After transfer, membranes were blocked with 5% non-fat dried milk, incubated with antibody to a specific STAT protein or to the corresponding phospho-STAT protein (NEW ENGLAND BIOLABS, Beverly, Mass.), secondary antibody conjugated to horseradish peroxidase was added, and immunocomplexes detected by enhanced chemiluminescence (NEW ENGLAND BIOLABS, Beverly, Mass.). […]

RSV [1] = test: Immunofluorescence count of RSV-infected A549 cells; type: cell-based, respiratory syncytial virus; details: A549 cells treated with PD98059, 24 hours of RSV infection, vs control
Experimental: as §1, with “The values are means SEM (*p<0.001).” left out
In FIG. 9A, PD98059- or DMSO-treated A549 cells were infected with RSV. […] The RSV titers were determined using a HEP-2 cell-based plaque assay as described. […] Twenty-four hours after transfection, A549 cells were infected with RSV for 90 minutes and 24 hours after the % of infected cells was determined with FITC-RSV antibody. […]

rgRSV = rgRSV infection of primary NHBE cells (fluorescent images); type: cell-based, respiratory syncytial virus; details: AG490 50 μM or PD98059 80 μM 2 hours before rgRSV, images after 16 hours
Experimental: FIGS. 10A-10F show the effects of STAT and ERK-1/2 inhibitors on RSV infection of NHBE cells. NHBE cells were treated with either AG490 (50 μM) (FIGS. 10C and 10D) or PD98059 (80 μM) (FIGS. 10E and 10F) for 2 hours. DMSO was used as a mock control (FIGS. 10A and 10B). After inhibitor removal, cells were infected with rgRSV for 2 hours. Then, rgRSV was removed and growth medium with inhibitors was added to the cells for 16 hours before fluorescent images (DMSO, FIG. 10B; AG490, FIG. 10D; PD98059, FIG. 10F) as well as light transmission images (DMSO, FIG. 10A; AG490, FIG. 10C; PD98059, FIG. 10E) were taken.
RSV A2 strain was obtained from the American Type Culture Collection (ATCC, Rockville, Md., USA). In some experiments, rgRSV (an engineered RSV expressing enhanced green fluorescent protein) was used. A549 cell line, representing type II alveolar epithelial cells, was obtained from the ATCC. The cells were grown at 37° C. in 5% CO2 in RPMI medium, supplemented with 10% fetal bovine serum. Normal human bronchial epithelial cells (NHBE) were obtained from CAMBREX (Walkersville, Md., USA) and grown in serum-free bronchial epithelium growth medium supplemented as indicated by the manufacturer. NHBE at passage 2 and 3 was used for the experiments.
A549 cells were incubated with AG490 (50 μM) or PD98059 (80 μM) for 4 hours at 37° C. and then infected with RSV. […]

IκBα = IκBα phosphorylation in RSV-infected A549 cells (immunoblot); type: cell-based, human; details: A549 cells pre-incubated with AG490 (50 μM) or PD98059 for 4 hours, then RSV
Experimental: FIGS. 8A-8D show the effects of inhibitors of phosphorylation of STAT-1α and ERK-1/2. In FIG. 8A, AG490- or PD98059-treated A549 cells were infected with RSV for 15 minutes. Total proteins were Western-blotted using specific anti-phospho antibodies to STAT-1α, ERK-1/2 or IκBα. Lane 1: mock-infected, lanes 2-4: RSV infected for 30 minutes, lane 3: cells treated with 50 μM of AG490 prior to RSV infection, lane 4: cells treated with 25 μM of PD98059 for 4 hours prior RSV infection. In FIG. 8B, the bands were quantified by densitometry and the relative intensity of phosphoSTAT-1α, phospho-ERK and phospho-IκBα with respect to uninfected control (lane 1) was determined. The experiment was repeated twice and the result of a representative experiment is shown. […] In FIG. 8D, the bands were quantified by densitometry and the relative intensity of phospho-ERK and ERK was determined in each band. […]
(§2) Whole cell protein extracts were prepared by lysing cells in 50 mM HEPES, 150 mM NaCl, 1 mM EDTA, 1 mM EGTA, 10% glycerol, 0.5% NP-40, 0.1 mM phenylmethylsulfonyl fluoride, 2.5 μg/ml leupeptin, 0.5 mM NaF, and 0.1 mM sodium vanadate. […] The antibody reactions were detected by enhanced chemiluminescence using LUMIGLO (CELL SIGNALLING TECHNOLOGY).

A549 cells = type: cell-based, human
Experimental: as §1
To rule out the possibility that this effect on viral replication is due to diminished cell proliferation, viable cells were enumerated at 12, 24, 48, and 72 hours after treatment with inhibitors.

ERK-1/2 = ERK-1/2 phosphorylation in RSV-infected A549 cells (immunoblot); type: cell-based, human
Experimental: Proteins were isolated from untreated cells (lane 1) or cells infected with RSV for 30 minutes (lanes 2-6) after pretreatment of cells for 30 minutes with heparinase (lane 3) or heparin (lane 5), or infected with virus pretreated with heparinase (lane 4) or heparin (lane 6) prior to addition to the cells. Proteins were separated by SDS-PAGE, blotted and probed with anti-phospho ERK-1/2 and then re-probed with anti-ERK-1/2.
FIGS. 8A-8D show the effects of inhibitors of phosphorylation of STAT-1α and ERK-1/2. In FIG. 8A, AG490- or PD98059-treated A549 cells were infected with RSV for 15 minutes. Total proteins were Western-blotted using specific anti-phospho antibodies to STAT-1α, ERK-1/2 or IκBα. Lane 1: mock-infected, lanes 2-4: RSV infected for 30 minutes, lane 3: cells treated with 50 μM of AG490 prior to RSV infection, lane 4: cells treated with 25 μM of PD98059 for 4 hours prior RSV infection. In FIG. 8B, the bands were quantified by densitometry and the relative intensity of phosphoSTAT-1α, phospho-ERK and phospho-IκBα with respect to uninfected control (lane 1) was determined. The experiment was repeated twice and the result of a representative experiment is shown. […] A549 cells were co-transfected with RL-TK plasmid and either the WT (pRc/CMV-STAT-1α) (lanes 3 and 4) or DN mutant (pRc/CMV-STAT-1α) (Y701F) (lanes 5 and 6) and were infected with RSV for 30 minutes after 24 hours of transfection. Total proteins were extracted and Western-blotted using antibodies to phospho-STAT-1α, phospho-ERK-1/2 and re-probed with antibodies to STAT-1α or ERK-1/2. In FIG. 8D, the bands were quantified by densitometry and the relative intensity of phospho-ERK and ERK was determined in each band. […]
as §2, with “TECHNOLOGY). […]” for “TECHNOLOGY).”

RSV [2] = test: RSV plaque assay (syncytia-forming plaques, HEp-2 cell-based); set-up: species or system respiratory syncytial virus; details: A549 cells, AG490 pretreatment, plaques counted 72 hours post-infection
Experimental: as §1, with “(*p<0.001). […]” for “(*p<0.001).”

RSV [3] = details: treatment of cells; Feldman et al. 1999; cited from earlier work

Compound | infectivity of HIV-1 virions (HIV-1) | RSV-induced STAT-1α phosphorylation (STAT-1α) | percentage of infected cells (RSV [1]) | number of infected cells (rgRSV) | IκBα phosphorylation (IκBα) | cytotoxic or anti-proliferative effects (viable cell counts) (A549 cells) | phosphorylation of STAT-1α (STAT-1α; A549 cells preincubated with AG490 for 4 hours, then supRSV 30 minutes, vs untreated controls) | ERK activation (phospho-ERK-1/2) (ERK-1/2; A549 cells pre-incubated with AG490 50 μM, then RSV) | RSV infection by plaque assay (PFU/ml) (RSV [2]) | RSV-induced activation of STAT-1 (STAT-1α; A549 cells or RSV pretreated with heparin 1000 U/ml or heparinase 10 U/ml, RSV 30 minutes) | RSV-induced activation of ERK-1/2 (ERK-1/2; A549 cells, heparin pretreatment, RSV 30 minutes) | ERK-1/2 phosphorylation induced by pretreated RSV (ERK-1/2; RSV pretreated with heparin or heparinase before addition to A549 cells) | RSV infection (RSV [3])
COc1cccc(-c2cc(=O)c3ccccc3o2)c1N [PD98059] | reduced the infectivity of HIV-1 virions | significantly affected the phosphorylation | decrease in the percentage of infected cells | significant reduction in the number of infected cells | significantly affected the phosphorylation | – | – | – | – | – | – | – | –
N#C/C(=C/c1ccc(O)c(O)c1)C(=O)NCc1ccccc1 [AG490] | – | decrease in RSV-induced STAT-1K phosphorylation | – | significant reduction in the number of infected cells | decrease | no cytotoxic or anti-proliferative effects | decreased phosphorylation of STAT-1α | failed to inhibit ERK activation | significantly (p<0.001) decreased RSV infection | – | – | – | –
heparin | – | – | – | – | – | – | – | – | – | abolished | abolished the RSV-induced activation of ERK-1/2 | did not induce ERK-1/2 phosphorylation | blocks RSV infection
